Measurements reported in ChEMBL document CHEMBL5260816, “Synthesis and biological evaluation of the natural product komaroviquinone and related compounds aiming at a potential therapeutic lead compound for high-risk multiple myeloma” (Bioorg Med Chem Lett, 2017).
pIC50: −log10 of the molar value.

Columns and labels:
[1] = Cytotoxicity against human MUM24 cells assessed as reduction in cell viability incubated for 48 hrs by MTT assay; assay type: functional, cell-based; conditions: MUM24, 48 h
[2] = Toxicity in ICR mouse bone marrow cells assessed as inhibition of cell differentiation incubated for 14 days by colony forming cell assay; assay type: cell-based; conditions: 336 h, time 14 day
[3] = Toxicity in ICR mouse bone marrow cells assessed as inhibition of cell differentiation at higher concentration incubated for 14 days by colony forming cell assay; assay type: cell-based; conditions: 336 h, time 14 day
[4] = Toxicity in ICR mouse bone marrow cells assessed as inhibition of cell differentiation at 1 uM incubated for 14 days by colony forming cell assay; assay type: cell-based; conditions: 336 h, time 14 day

## COc1cc(C[C@@]23CCCC(C)(C)[C@@H]2CC(=O)O3)c(OC)c(OC)c1C(C)C
[1]
  pIC50: 5.30

## COC1=C(C(C)C)C(=O)C=C(C[C@@]23CCCC(C)(C)[C@@H]2CC(=O)O3)C1=O
[1]
  pIC50: > 5.52

## COC1=C(C(C)C)C(=O)C=C(Cc2ccccc2)C1=O
[1]
  pIC50: > 5.52

## COC1=C(C(C)C)C(=O)C=C(CNC(=O)C2CCCCC2)C1=O
[1]
  pIC50: > 5.52

## COC1=C(C(C)C)C(=O)C=C(COC(C)C)C1=O
[1]
  pIC50: > 5.52

## COC1=C(C(C)C)C(=O)C=C(COC(Cn2cncn2)c2ccc(F)cc2F)C1=O (centres undefined)
[1]
  pIC50: 5.48

## COC1=C(C(C)C)C(=O)C=C(CC(O)(Cn2cncn2)c2ccc(F)cc2F)C1=O (centres undefined)
[2]
  Activity: Toxic
[1]
  pIC50: 5.60

## COc1c2c(c(OC)c(C(C)C)c1OC)C(=O)CCC2
[1]
  pIC50: < 4.52

## COc1c(O)c2c(c(O)c1C(C)C)C(=O)C[C@H]1C(C)(C)CCC[C@]1(O)C2
[2]
  Activity: Toxic
[1]
  pIC50: 5.21

## COc1cc(CC(O)(Cn2cncn2)c2ccc(F)cc2F)c(OC)c(OC)c1C(C)C (centres undefined)
[3]
  Activity: Non-Toxic
[1]
  pIC50: 5.01

## COc1c2c(c(OC)c(C(C)C)c1OC)C(=O)CCCC2
[1]
  pIC50: < 4.52

## COC1=C(C(C)C)C(=O)c2ccc(-c3ccccc3)nc2C1=O
[1]
  pIC50: 5.39

## COc1c(OC(C)=O)c2c(c(OC(C)=O)c1C(C)C)C(=O)C[C@H]1C(C)(C)CCC[C@]1(O)C2
[1]
  pIC50: 4.71

## COc1c2c(c(OC)c(C(C)C)c1OC)C(=O)C[C@H]1C(C)(C)CCC[C@]1(O)C2
[1]
  pIC50: < 5.00

## COc1cc(CC2=CCCC(C)(C)[C@@H]2CC(=O)O)c(OC)c(OC)c1C(C)C
[1]
  pIC50: < 5.00

## COc1c(OC(C)=O)c2c(c(O)c1C(C)C)C(=O)C[C@H]1C(C)(C)CCC[C@]1(O)C2
[1]
  pIC50: 4.90

## COC1=C(C(C)C)C(=O)c2cc3c(nc2C1=O)CCCC3
[1]
  pIC50: 5.86

## COc1cc(COC(Cn2cncn2)c2ccc(F)cc2F)c(OC)c(OC)c1C(C)C (centres undefined)
[3]
  Activity: Non-Toxic
[1]
  pIC50: 5.15

## COC1=C(C(C)C)C(=O)C2=C(C[C@@]34CCCC(C)(C)[C@@H]3C[C@]2(O)O4)C1=O [KOMAROVIQUINONE]
[4]
  Activity: Toxic
[1]
  pIC50: 6.19
